Measured values: patent US7745473B2, “Indole derivative for alkylating specific base sequence of DNA and alkylating agent and drug containing the derivative” (Kyoto University, priority 2004, dated 2010)
“Also recorded” adds a separate entry of the source.

Tests used:
[1] = test system: long-chain DNA (pUC-II′; SEQ ID NO:7); test: DNA alkylation of 5′-Texas Red-labeled long-chain DNA, analysed by polyacrylamide gel electrophoresis; assay type: biochemical; details: 23° C., 8 hours, FIG. 1
Protocol: A 5′-Texas Red-labeled DNA fragment (450 bp) (pUC-II′, SEQ ID NO:7) was prepared by a PCR method using the 5′-Texas Red-labeled 19-base-pair primer (pUC18 forward, 328-345; SEQ ID NO:6) and the 21-base-pair primer (pUC18 reverse, 1861-1881; SEQ ID NO:5), puc18 being used as a template.
The reaction of compounds (3-1) and (4-1) prepared in the above-described Synthesis Examples with DNA was studied using the long-chain DNA (pUC-II′; SEQ ID NO:7). An alkylation reaction was performed at 23° C. for 8 hours. The sequence alkylated was analyzed by polyacrylic gel electrophoresis for sequence determination. […] This sequence specificity can be explained by a model in which each compound dimerizes in the DNA minor groove to recognize the base sequence.
Analysis by polyacrylamide gel electrophoresis was performed by the following process: A standard reaction solution containing the 5′-Texas Red-end-labeled DNA fragment (10 nM), DMF (10% (v/v)), and an agent having a concentration described above in a sodium phosphate buffer (5 mM, total volume: 10 μL, pH=7.0) was charged into a microfuge tube (Eppendorf) and left standing at 23° C. for 8 hours. After completion of the reaction, the reaction was quenched by the addition of calf thymus DNA (1 mM, 1 μL). The resulting mixture was shaken at 90° C. for 5 minutes. […]

[2] = Stability under acidic and alkaline conditions by HPLC; assay type: physicochemical
Protocol: Analysis of stability under acidic and alkaline conditions by HPLC was performed by the following process: A reaction solution containing compound (3-1) or (4-1) (100 μM) in a total volume of 10 μL of an aqueous solution of 5% HCl (pH=1, DMF:H2O=1:9) or an aqueous solution of 5% NaHCO3 (pH=9, DMF:H2O=1:9) was charged into a microfuge tube (Eppendorf) and left standing at 37° C. After 30 minutes, 2 hours, and 24 hours, analysis of compound (4-1) (16.8 min) and compound (3-1) (15.1 min) was performed by HPLC (linear gradient of acetonitrile 0-100% in 50 mM ammonium formate, 20 min, flow rate: 1.0 mL/min, 254 nm).
The Py-Im polyamide containing the indole linker was evaluated for stability by product analysis on HPLC using compounds (4-1) and (3-1). […] Compound (4-1) was converted into compound (3-1) (30 minutes: 50%, 2 hours: 78%) in the alkaline aqueous NaHCO3 solution (pH=9) (left standing at 37° C. for 24 hours). […] Compound (3-1) was readily converted into compound (4-1) (30 minutes: 96%) in the acidic aqueous HCl solution (pH=1) (37° C.).

[3] = test system: long-chain DNA (pUC-II; SEQ ID NO:4, pUC-I′; SEQ ID NO:1); test: DNA alkylation of 5′-Texas Red-labeled long-chain DNA, analysed by polyacrylamide gel electrophoresis; assay type: biochemical
Protocol: A 5′-Texas Red-labeled DNA fragment (450 bp) (pUC-I′, SEQ ID NO:1) was prepared by a PCR method using a 5′-Texas Red-labeled 20-base-pair primer, i.e., 5′-TexRed-[…]-3′ (pUC18 forward, 780-799; SEQ ID NO:2), and a 20-base-pair primer, i.e., 5′-[…]-3′ (pUC18 reverse, 1459-1478; SEQ ID NO:3), puc18 being used as a template. The DNA fragment was in a double-stranded state including a complementary strand (the following fragments were in the same state).
A 5′-Texas Red-labeled DNA fragment (450 bp) (pUC-II, SEQ ID NO:4) was prepared by a PCR method using a 5′-Texas Red-labeled 21-base-pair primer, i.e., 5′-TexRed-[…]-3′ (pUC18 reverse, 1861-1881; SEQ ID NO:5), and a 19-base-pair primer, i.e., 5-TGTAAAACGACGGCCAGTG-3′ (pUC18 forward, 328-345; SEQ ID NO:6), puc18 being used as a template.
(§1) Analysis by polyacrylamide gel electrophoresis was performed by the following process: A standard reaction solution containing the 5′-Texas Red-end-labeled DNA fragment (10 nM), DMF (10% (v/v)), and an agent having a concentration described above in a sodium phosphate buffer (5 mM, total volume: 10 μL, pH=7.0) was charged into a microfuge tube (Eppendorf) and left standing at 23° C. for 8 hours. After completion of the reaction, the reaction was quenched by the addition of calf thymus DNA (1 mM, 1 μL). The resulting mixture was shaken at 90° C. for 5 minutes. The DNA obtained by centrifugation under reduced pressure was dissolved by the addition of 8 μl, of loading dye (fushin red solution in DMF), shaken at 94° C. for 20 minutes, and then immediately cooled to 0° C. A 2-μL aliquot was separated electrophoretically on a 6% denaturing polyacrylamide gel using a Hitachi 5500-S DNA sequencer. The following tests were conducted in a similar way.
The reaction of compounds (3-2) and (3-3) prepared in the above-described Synthesis Examples with DNA was studied using the long-chain DNA (pUC-II; SEQ ID NO:4, pUC-I′; SEQ ID NO:1). An alkylation reaction was performed for 8 hours. The sequence alkylated was analyzed by polyacrylic gel electrophoresis for sequence determination. […] However, the difference in sequence recognition ability was observed. […] From the stand point of the sequence recognition ability, the molecular design of compound (3-2) was excellent.

[4] = test system: long-chain DNA (λ-F10906; SEQ ID NO:8); test: as above; assay type: biochemical; details: λ-F10906, nanomolar concentrations, FIG. 4
Protocol: A 5′-Texas Red-labeled DNA fragment (537 bp) (λ-F10906; SEQ ID NO:8) was prepared by a PCR method using a 5′-Texas Red-labeled 23-base-pair primer, i.e., 5′-TexRed-[…]-3′ (λ-DNA forward, 10960-10982; SEQ ID NO:9), and a 20-base-pair primer, i.e., 5′-[…]-3′ (λ-DNA reverse, 37007-37026; SEQ ID NO:10), λ-DNA being used as a template.
as §1
The reaction of compounds (3-2), (3-4), and (3-5) with DNA was studied using the long-chain DNA (λ-F10906; SEQ ID NO:8). The DNA-alkylating ability of each compound was evaluated.

[5] = test system: human ER(+) breast cancer Br-10; test: Antitumor activity against transplantable human breast cancer in nude mice; assay type: in vivo, BALB/cA-nu/nu mice; details: for T/C (%): treated group / control group ×100
Protocol: Antitumor activity of compound (4-2) against transplantable human ER(+) breast cancer Br-10 in nude mice was studied. Human ER(+) breast cancer Br-10 was subcutaneously transplanted in dorsal portions of 8-week-old BALB/cA-nu/nu mice through a trocar. Injection of 0.1 mL of EP Hormone Depot was intramuscularly administered in Br-10-transplant mice simultaneously with the transplantation. When the tumor volume reached about 100 mm^3, the mice were divided into 5 mice/group, and then the administration started.
Compound (4-2) was dissolved in ethanol, diluted with physiological saline, and subcutaneously injected in divided doses into 3 or 4 portions near the tumor once a day and 3 times every 3 days. The dose of compound (4-2) was 50 mg/kg (about 1 mg/mouse) in a volume of 0.05 mL/10 g. Physiological saline was subcutaneously injected in the control group. The length of the major axis (L) and the length of the minor axis (W) were measured every 3 days. The tumor volume was calculated with the following formula: Tumor volume (mm^3)=L(mm)×W^2(mm^2)/2 Comparison of the tumor volume between the compound (4-2) treated group and the control group was performed. […] Values shown in the table show relative estimation of each group when the tumor volume after 1 day in each group is defined as 1.0; and relative estimation calculated with (tumor volume of compound (4-2) treated group: T)/(tumor volume of control group: C)×100%.

[6] = 8 hours, pUC-II and pUC-I′, FIG. 2

CC(=O)Nc1cn(C)c(C(=O)Nc2cn(C)c(C(=O)Nc3ccc4[nH]c(C(=O)N5CC6CC67C5=CC(=O)c5ccccc57)cc4c3)n2)n1 (centres unmarked) [compound (3-1), AcImIm-Indole-CBI]
sequence-specific DNA alkylation [1]: selectively alkylated adenine located at site 1 (5′-CGGCCA-3′) at nanomolar concentrations
conversion into compound (4-1) ([2]; acidic aqueous HCl solution pH=1, 37° C., 30 minutes): 96%

CC(=O)Nc1cn(C)c(C(=O)Nc2cn(C)c(C(=O)Nc3cc(C(=O)NCCCC(=O)Nc4cn(C)c(C(=O)Nc5ccc6[nH]c(C(=O)N7CC8CC89C7=CC(=O)c7ccccc79)cc6c5)n4)n(C)c3)n2)n1 (centres unmarked) [compound (3-3), AcImImPy-γ-Im-Indole-CBI]
alkylated sites (sequence recognition ability) [3, 6]: alkylation of site 4 (5′-AGCCA-3′), which was a match sequence, was observed; also recorded: single-base-pair mismatch sequences in site 1 (5′-AGCTA-3′), site 2 (5′-AGTCA-3′), site 5 (5′-TACCA-3′), and the like were also observed
efficiency of DNA alkylation [3, 6]: efficient DNA alkylation comparable with that of a known Py-Im polyamide having a vinyl linker was observed at nanomolar concentrations
alkylation of guanine at match site 5′-TGCCG-3′ ([3]; pUC-I′ (SEQ ID NO:1)): no alkylation of guanine was observed

CC(=O)Nc1cn(C)c(C(=O)Nc2cn(C)c(C(=O)Nc3cc(C(=O)Nc4cc(C(=O)NCCCC(=O)Nc5cc(C(=O)Nc6cc(C(=O)Nc7ccc8[nH]c(C(=O)N9CC%10CC%10%11C9=CC(=O)c9ccccc9%11)cc8c7)n(C)c6)n(C)c5)n(C)c4)n(C)c3)n2)n1 (centres unmarked) [compound (3-4), AcImImPyPy-γ-PyPy-Indole-CBI]
sequence-specific DNA alkylation, alkylated sites [4]: Sequence-specific DNA alkylation (site 6: 5′-AATCCA-3′, site 7: 5′-TAACCA-3′)

CC(=O)Nc1cn(C)c(C(=O)Nc2cc(C(=O)Nc3cc(C(=O)Nc4cc(C(=O)NCCCC(=O)Nc5cn(C)c(C(=O)Nc6cc(C(=O)Nc7ccc8[nH]c(C(=O)N9CC%10CC%10%11C9=CC(=O)c9ccccc9%11)cc8c7)n(C)c6)n5)n(C)c4)n(C)c3)n(C)c2)n1 (centres unmarked) [compound (3-5), AcImPyPyPy-γ-ImPy-Indole-CBI]
sequence-specific DNA alkylation, alkylated sites [4]: alkylation of an only mismatch sequence (site 1: 5′-TGCTCA-3′) was observed

CC(=O)Nc1cn(C)c(C(=O)Nc2cn(C)c(C(=O)Nc3ccc4[nH]c(C(=O)N5CC(CCl)c6c5cc(O)c5ccccc65)cc4c3)n2)n1 (centres unmarked) [compound (4-1), AcImIm-Indole-seco-CBI]
sequence-specific DNA alkylation [1]: selectively alkylated adenine located at site 1 (5′-CGGCCA-3′) at nanomolar concentrations
conversion into compound (3-1) ([2]; alkaline aqueous NaHCO3 solution pH=9, 37° C., 30 minutes): 50%
conversion into compound (3-1) ([2]; alkaline aqueous NaHCO3 solution pH=9, 37° C., 2 hours): 78%
formation of other hydrolysates ([2]; alkaline aqueous NaHCO3 solution pH=9, 37° C., 24 hours): No other hydrolysates were formed
hydrolysis in acidic aqueous HCl solution ([2]; pH=1, 37° C., 24 hours): not hydrolyzed at all

CC(=O)Nc1cn(C)c(C(=O)Nc2cn(C)c(C(=O)Nc3cc(C(=O)Nc4cc(C(=O)NCCCC(=O)Nc5cn(C)c(C(=O)Nc6cc(C(=O)Nc7ccc8[nH]c(C(=O)N9CC(CCl)c%10c9cc(O)c9ccccc%109)cc8c7)n(C)c6)n5)n(C)c4)n(C)c3)n2)n1 (centres unmarked) [compound (4-2), AcImImPyPy-γ-ImPy-Indole-seco-CBI]
suppression of tumor growth ([5]; 50 mg/kg subcutaneous near the tumor, Br-10 in nude mice): suppression of tumor growth was observed after the first administration
toxicity (weight loss of mice and the like) ([5]; 50 mg/kg subcutaneous, nude mice): toxicity that causes the weight loss of mice and the like was not observed
relative tumor volume (after 1 day = 1.0) ([5]; after 1 day, 50 mg/kg subcutaneous near the tumor): 1.0
T/C (%) ([5]; after 1 day): 100%
relative tumor volume (after 1 day = 1.0) ([5]; after 4 days, 50 mg/kg subcutaneous near the tumor): 1.1
T/C (%) ([5]; after 4 days): 78.6%
relative tumor volume (after 1 day = 1.0) ([5]; after 7 days, 50 mg/kg subcutaneous near the tumor): 1.4
T/C (%) ([5]; after 7 days): 82.4%
relative tumor volume (after 1 day = 1.0) ([5]; after 10 days, 50 mg/kg subcutaneous near the tumor): 1.4
T/C (%) ([5]; after 10 days): 66.7%
relative tumor volume (after 1 day = 1.0) ([5]; after 13 days, 50 mg/kg subcutaneous near the tumor): 1.5
T/C (%) ([5]; after 13 days): 55.6%
relative tumor volume (after 1 day = 1.0) ([5]; after 16 days, 50 mg/kg subcutaneous near the tumor): 2.0
T/C (%) ([5]; after 16 days): 64.5%
